Assay in all cases: cells
Set-up in all cases: CellTiter-Glo 2.0 luminescence proliferation/viability assay, single agents, human tumour cell line panel
A general note: ATP-based viability assays read luminescence as a measure of living cells.

In one assay the test system is KP-2. The note with it: 96 h; single agent; read-out: IC50 SMACm. The procedure: (§1) The effect of BETi, SMACm alone or in combination cell viability was determined using a 96-h CellTiter-Glo2.0 proliferation assay. Cells were seeded in assay plates and placed at 37°C with 5% CO2 for twenty-four hours before treatment. Compounds were added in triplicate in gradients of increasing concentrations, in case of SMACm ranging between 4.5 nM and 10 μM and in case of BETi between 1.4 nM and 3 μM. DMSO served as control. Cell viability was measured by luminescence analysis using luminescence read on Envision plate readers (PerkinElmer). An additional set of colorectal cancer cell lines was assayed with technical duplicates and experimental triplicates. Cell viability was measured by luminescence analysis using luminescence read on Tecan Plate reader. The effects of drug combinations were analyzed using the Bliss Independence Model.[34] Synergy score was calculated by the average of 3 highest and 3 lowest BLISS Gaps between predicted and measured POC (Percentage of Control) values. To investigate the synergistic interaction between BI 894999 (hereafter, BETi) and BI 891065 (hereafter, SMACm), we evaluated the in vitro anti-tumor effect of the single agents or the combination in a large panel of 151 cancer cell lines of different tissue origin: CRC, gastric cancer, non-small cell lung cancer (NSCLC), and pancreatic carcinoma (Figures 1C–1F). As a mono-agent, SMACm was able to inhibit cell proliferation only in a limited number of tested cell lines (4%, Table S2). Most of the cell lines responded to inhibition by BETi, with sensitivity ranging from 10 to 100 nM (Figure 1C). Bliss Gap analysis, performed to analyze the effect of the BETi+SMACm combination on tumor cell growth (Figures 1D–1F), unveiled potent synergistic activity across the cell models tested (Figure 1E), independent of tumor type (Figure 1F).  Figure 1 The combinatorial effect of BI 894999 and BI 891065 across a panel of human tumor cell lines (A) Selectivity and potency profiles of BI 891065. Top left, structure of BI 891065. Top right, IC50 values for BI 891065 inhibition of cIAP1, cIAP2, and XIAP. Bottom, physicochemical properties of […]. (B) WES (Simple Western System) analysis of cIAP1, cIAP2, and XIAP levels upon treatment of HT-29 cells with indicated concentrations of BI 891065 for 6 h (C) IC50 values determined in cell proliferation assays (n = 151) individually for BETi BI 894999 and SMACm BI 891065. Each point represents a cell line tested. (D) Example of proliferation assay for synergy analysis in LoVo cell line; shown is combination plate map matrix and the cell growth inhibition (CGI) at the indicated concentrations; CGI values < 100%: tumor cell growth, CGI 100%: tumor cell stasis, and CGI > 100%: tumor cell killing. (E) Synergy scores across the tested panel of cell lines obtained using Bliss synergy analysis. (F) Violin plots showing the synergy scores for BETi and SMACm combination across indications. N is the number of cell lines tested in each indication group.

The test system of a further assay is SNU1460. The note with it: 96 h; single agent; read-out: IC50 SMACm. As to the method: as §1
The next assay has as its system LS-513. The note with it: Homo sapiens, LS-513, 96 h; single agent; read-out: IC50 SMACm. As to the method: as §1
For a further assay, the system named is Calu-3. The conditions noted are these: Homo sapiens, Calu-3, 96 h; single agent; read-out: IC50 SMACm. As to the method:
as §1

A further assay has as its system KM12. The conditions noted are these: Homo sapiens, KM12, 96 h; single agent; read-out: IC50 SMACm. The procedure: as §1
The next assay relates to C125PM. The note with it: 96 h; single agent; read-out: IC50 SMACm. The procedure: as §1
A further assay has as its system KM12L4. The note with it: KM 12L4, 96 h; single agent; read-out: IC50 SMACm. As to the method: as §1
The next assay has as its system HCT-15. The conditions noted are these: Homo sapiens, HCT-15, 96 h; single agent; read-out: IC50 SMACm. The procedure:
as §1

In another assay the test system is LS-123. The note with it: Homo sapiens, LS-123, 96 h; single agent; read-out: IC50 SMACm. The procedure: as §1
The test system of another assay is HCA46. The note with it: 96 h; single agent; read-out: IC50 SMACm. The procedure:
as §1

The test system of the next assay is CAPAN-2. The note with it: Homo sapiens, Capan-2, 96 h; single agent; read-out: IC50 SMACm. The procedure:
as §1

A further assay concerns NCI-H2122. The conditions noted are these: Homo sapiens, NCI-H2122, 96 h; single agent; read-out: IC50 SMACm. The procedure:
as §1

Another assay deals with SNU-216. The conditions noted are these: SNU-216, 96 h; single agent; read-out: IC50 SMACm. As to the method:
as §1

In another assay the test system is C32. The note with it: Homo sapiens, C32, 96 h; single agent; read-out: IC50 SMACm. The procedure: as §1
Another assay has as its system C10. The note with it: 96 h; single agent; read-out: IC50 SMACm. As to the method: as §1

The results in this text go back to publication PMC12490239, “Combining BET inhibition with SMAC mimetics restricts tumor growth and triggers immune surveillance in preclinical cancer models” (Cell Reports Medicine, 2025).

A word on the IC50: it is the concentration at which inhibition is half-maximal. For the molecule `CN[C@@H](C)C(=O)Nc1ccc(-c2c(-c3cccnc3OC)nc3cc(C)ccn23)c(C#Cc2ccc3c(C)nccc3c2)n1` [SMACm, BI 891065], the IC50 with KP-2 is 4.62 µM; in the assay with SNU1460 it was 3.15 µM; in the assay with LS-513 it was 5.77 µM; in the assay with Calu-3 it was 1.46 µM; with KM12, 7.46 µM; in the assay with C125PM, 1.26 µM. The IC50 with KM12L4 worked out at 4.04 µM; in the assay with HCT-15, 2.82 µM; with LS-123, 4.86 µM; in the assay with HCA46, 3.54 µM; in the assay on CAPAN-2, 8.59 µM; in the assay on NCI-H2122, 5.15 µM. The IC50 with SNU-216 stood at 4.32 µM; in the assay with C32, 1.09 µM; in the assay on C10, 6.47 µM.
